{"source": "patent US20250162973A1", "about": "“METHODS OF SYNTHESIS AND USES OF AGRIMOL COMPOUNDS” (Versitech Limited, priority 2022, published 2025)", "key": {"[1]": {"experiment": "Serum biochemical examination in MTD test", "format": "in vivo", "conditions": "12.8 mg/kg", "method": "(§1) The MTD test in this study was done in collaboration with Tianjin Institute of Pharmaceutical Research (TIPR). […] A total of 80 mice were randomly assigned into four groups (10 male and 10 female mice in each group) in this study. Four groups included 16.0 mg/kg of AGB group, 12.8 mg/kg of AGB group, vehicle control group (10% DMSO+0.8% Tween-80 in normal saline), and the blank control group (normal saline).\n(§2) Then, the body weights of surviving animals were measured on the 1st, 3rd, 7th and 14th days, respectively. At the end of experiment, the hematology, blood biochemistry, anatomical examination, and histopathology examination were performed in both vehicle control group and the MTD group (12.8 mg/kg). The data were presented as the mean±standard deviation."}, "[2]": {"system": "mitochondria of NCI-H460 cells", "experiment": "Mitochondrial morphology and fusion/fission proteins (MitoTracker, Western Blot, immunofluorescence, TEM)", "format": "cell-based, human", "excerpt": "Mitochondria are highly dynamic organelles that frequently fuse and fragment, with the ability to change size, shape, and position. The dynamic nature of mitochondria is important for mitochondrial inheritance and for the maintenance of mitochondrial functions. When the balance between fission and fusion is disrupted, as result of a relative increase or decrease in either process, the overall mitochondrial morphology is changed markedly.\nSeveral proteins that control mitochondrial fusion and fission have been identified, including mitofusins and OPA1 for fusion, and Mff and DRP1 for fission. The effects of AGB on the expression of mitochondrial fusion proteins (Mfn1 and Mfn2) and fission proteins (DRP1 and Mff) were studied. […] DRP1 phosphorylation at residue S637 by protein kinase A inhibits mitochondrial fission whereas dephosphorylation at S637 increases mitochondrial recruitment of DRP1 and promotes mitochondrial fission. The localization of DRP1 was examined by the immunofluorescence staining.\nOPA1 is another protein localized at the inner mitochondrial membrane and is involved in different function like regulation of mitochondrial morphology dynamics, maintenance of respiratory chain, and control of ATP synthesis. The decrease of L-OPA1 causes inhibition of mitochondrial fusion, whereas the accumulation of S-OPA1 facilitates mitochondrial fission. […] OPA1 plays a role in maintaining the mitochondrial cristae structure. OPA1 fragmentation leads to a disorganization of the structure of the mitochondrial inner membrane. The ultrastructure of mitochondria was observed under transmission electron microscopy (TEM) with the treatment of AGB or vehicle for 16 h."}, "[3]": {"experiment": "Hematological examination in MTD test", "format": "in vivo", "conditions": "12.8 mg/kg, day 14", "method": "as §1, §2"}, "NCI-H460 cells": {"system": "NCI-H460 cells", "experiment": "Apoptosis assays (Hoechst, annexin V/PI, Western blotting)", "format": "cell-based, human", "method": "FIG. 4 is a graph showing AGB induced apoptosis in NCI-H460 cells by the Annexin-V/PI double-staining assay. After treating with AGB for 24 h and 36 h, respectively, cells were stained with annexin V-FITC and propidium iodide and analyzed by flow cytometry.\nThe mitochondrial fission and mitochondrial membrane potential depolarization are involved in the induction of cell apoptosis and also play a central role to the apoptotic pathway. Therefore, several apoptosis assays were performed. […] Induction of apoptosis by AGB in NCI-H460 cells was further supported through monitoring PARP, caspase-9, and caspase-3 cleavage as well as through changes in the levels of a panel of proteins commonly involved in apoptotic signaling via Western blotting experiments (data not shown)."}, "NCI-H460 xenograft": {"system": "NCI-H460 xenograft", "experiment": "Human tumor xenograft model", "format": "in vivo, BALB/c nude mice", "conditions": "AGB 3 mg/kg, tail intravenous injection", "method": "In vivo anticancer efficacy of AGB was evaluated using the human tumor xenograft model, in which human cancer cells were inoculated into immune-deficiency mice. Briefly, twelve six-week-old (16-18 g) BALB/c nude mice were randomly divided into two groups and both received subcutaneous injection of NCI-H460 cells (2 million cells in 0.1 mL PBS) at its right flank of mice and tumor became palpable after three days of injection. Mice were received intravenous (i.v.) injections of AGB or vehicle control (10% DMSO and 0.05% Tween 80 in normal saline) every two days in two weeks. The length and width of tumor were measured by Vernier caliper and the body weight was monitored every two or three days. At the end of experiment, mice were sacrificed and decapitated. The liver, kidney, and tumor were collected and fixed in 4% formaldehyde for further haematoxylin and eosin (H&E) staining. All animal experiments in this project received human care and study protocols complied with the guidelines of the Laboratory Animal Services Centre of the University of Hong Kong. Tumor sizes and body weight were recorded before the drug injection every time and tumor volume (V) was calculated by the formula V=LW^2/2, where L is tumor length and W is tumor width. […]\nThe in vivo antitumor potential of AGB using the xenograft mouse model was assessed. […]"}, "[4]": {"experiment": "Safety in xenograft mice (body weight, H&E staining)", "format": "in vivo", "method": "In vivo anticancer efficacy of AGB was evaluated using the human tumor xenograft model, in which human cancer cells were inoculated into immune-deficiency mice. Briefly, twelve six-week-old (16-18 g) BALB/c nude mice were randomly divided into two groups and both received subcutaneous injection of NCI-H460 cells (2 million cells in 0.1 mL PBS) at its right flank of mice and tumor became palpable after three days of injection. Mice were received intravenous (i.v.) injections of AGB or vehicle control (10% DMSO and 0.05% Tween 80 in normal saline) every two days in two weeks. The length and width of tumor were measured by Vernier caliper and the body weight was monitored every two or three days. At the end of experiment, mice were sacrificed and decapitated. The liver, kidney, and tumor were collected and fixed in 4% formaldehyde for further haematoxylin and eosin (H&E) staining. All animal experiments in this project received human care and study protocols complied with the guidelines of the Laboratory Animal Services Centre of the University of Hong Kong. Tumor sizes and body weight were recorded before the drug injection every time and tumor volume (V) was calculated by the formula V=LW^2/2, where L is tumor length and W is tumor width. The relative tumor volume that normalized to day 0 was used to monitor the tumor growth. Data in each group was shown as mean±standard deviation.\nThe in vivo antitumor potential of AGB using the xenograft mouse model was assessed. Two different cancer cells (NCI-H460 and A549) were inoculated subcutaneously into the nude mice. Non-obese diabetic severe combined immunodeficient (NOD/SCID) mice were used for stem-like NCI-H460 cells. The mice were then treated by tail intravenous injection with vehicle or AGB (3 mg/kg). […] To further evaluate the safety of AGB, hematoxylin-eosin (H&E) staining of the kidney, liver, and tumor samples were performed (FIG. 1K). The necrotic area (circled by dashed line) in the tumor tissue from mice treated with AGB was much larger than that in vehicle group."}}}
{"smiles": "CCCC(=O)c1c(O)c(Cc2c(O)c(Cc3c(O)c(C)c(OC)c(C(=O)CCC)c3O)c(O)c(C(=O)[C@@H](C)CC)c2O)c(O)c(C)c1OC", "note": "[AGB, Agrimol B]", "values": [{"measurement": "serum biochemical abnormalities vs vehicle control", "setting": "[1]; 14 days after administration", "result": "no obvious abnormalities"}, {"measurement": "ALB", "setting": "[1]; day 14", "result": "17.73 ± 5.07", "unit": "g/L"}, {"measurement": "ALP", "setting": "[1]; day 14", "result": "153.67 ± 37.63", "unit": "U/L"}, {"measurement": "ALT", "setting": "[1]; day 14", "result": "26.09 ± 2.23", "unit": "U/L"}, {"measurement": "AST", "setting": "[1]; day 14", "result": "85.74 ± 15.96", "unit": "U/L"}, {"measurement": "BUN", "setting": "[1]; day 14", "result": "4.58 ± 2.24", "unit": "mmol/L"}, {"measurement": "CK", "setting": "[1]; day 14", "result": "953.09 ± 480.50", "unit": "U/L"}, {"measurement": "CREA", "setting": "[1]; day 14", "result": "34.11 ± 3.61", "unit": "µmol/L"}, {"measurement": "GGT", "setting": "[1]; day 14", "result": "0.07 ± 0.08", "unit": "U/L"}, {"measurement": "GLU", "setting": "[1]; day 14", "result": "9.10 ± 3.07", "unit": "mmol/L"}, {"measurement": "LDH", "setting": "[1]; day 14", "result": "403.54 ± 92.68", "unit": "U/L"}, {"measurement": "T.BIL", "setting": "[1]; day 14", "result": "1.75 ± 0.45", "unit": "µmol/L"}, {"measurement": "T.CHO", "setting": "[1]; day 14", "result": "3.68 ± 1.60", "unit": "mmol/L"}, {"measurement": "TG", "setting": "[1]; day 14", "result": "1.41 ± 0.59", "unit": "mmol/L"}, {"measurement": "TP", "setting": "[1]; day 14", "result": "45.93 ± 13.71", "unit": "g/L"}, {"measurement": "morphology of mitochondria (MitoTracker Green)", "setting": "[2]; 4 μM AGB, 0-16 h", "result": "gradually changed into significant punctuated structures"}, {"measurement": "ultrastructure of mitochondria (TEM)", "setting": "[2]; 16 h treatment", "result": "circular vesicles of reduced diameter predominated"}, {"measurement": "expression of DRP1 and Mff", "setting": "[2]; Western Blot", "result": "did not alter"}, {"measurement": "phosphor-DRP1 (Ser637)", "setting": "[2]; Western Blot", "result": "significant decrease"}, {"measurement": "OPA1 cleavage from L-OPA1 into S-OPA1", "setting": "[2]; Western Blot, dose and time dependent", "result": "promoted OPA1 cleavage"}, {"measurement": "expression of Mfn1 and Mfn2", "setting": "[2]; Western Blot, dose-dependent", "result": "slightly decreased"}, {"measurement": "translocation of DRP1 from cytoplasm into mitochondria", "setting": "[2]; immunostaining, mito-RFP-transfected cells", "result": "significantly promoted"}, {"measurement": "E (eosinophils)", "setting": "[3]", "result": "0.29 ± 0.11 ×10^9/L"}, {"measurement": "E(%)", "setting": "[3]", "result": "5.48 ± 1.64", "unit": "%"}, {"measurement": "HCT", "setting": "[3]", "result": "47.54 ± 2.21", "unit": "%"}, {"measurement": "HGB", "setting": "[3]", "result": "138.20 ± 9.38", "unit": "g/L"}, {"measurement": "L (lymphocytes)", "setting": "[3]", "result": "4.22 ± 1.32 ×10^9/L"}, {"measurement": "L(%)", "setting": "[3]", "result": "77.53 ± 2.05", "unit": "%"}, {"measurement": "M (monocytes)", "setting": "[3]", "result": "0.09 ± 0.03 ×10^9/L"}, {"measurement": "M(%)", "setting": "[3]", "result": "1.64 ± 0.46", "unit": "%"}, {"measurement": "MCH", "setting": "[3]", "result": "15.20 ± 0.97", "unit": "pg"}, {"measurement": "MCHC", "setting": "[3]", "result": "291.00 ± 20.17", "unit": "g/L"}, {"measurement": "MCV", "setting": "[3]", "result": "52.25 ± 2.16", "unit": "fL"}, {"measurement": "N (neutrophils)", "setting": "[3]", "result": "0.78 ± 0.28 ×10^9/L"}, {"measurement": "N(%)", "setting": "[3]", "result": "14.24 ± 2.15", "unit": "%"}, {"measurement": "PLT", "setting": "[3]", "result": "1733.80 ± 371.53 ×10^9/L"}, {"measurement": "RBC", "setting": "[3]", "result": "9.11 ± 0.45 ×10^12/L"}, {"measurement": "Ret", "setting": "[3]", "result": "0.81 ± 0.09 ×10^12/L"}, {"measurement": "Ret(%)", "setting": "[3]", "result": "8.83 ± 0.74", "unit": "%"}, {"measurement": "WBC", "setting": "[3]", "result": "5.44 ± 1.66 ×10^9/L"}, {"measurement": "Hoechst staining", "setting": "NCI-H460 cells", "result": "chromatin condensation and fragmentation"}, {"measurement": "release of mitochondrial factors to cytosol", "setting": "NCI-H460 cells", "result": "release of cytochrome c and apoptosis inducing factor AIF"}, {"measurement": "annexin V and PI flow cytometry", "setting": "NCI-H460 cells; 24 h and 36 h AGB treatment", "result": "increase of the early and late apoptotic cell populations"}, {"measurement": "tumor growth inhibition rate", "setting": "NCI-H460 xenograft", "result": 57, "unit": "%"}, {"measurement": "observable toxicity (body weight of mice)", "setting": "[4]; 3 mg/kg of AGB", "result": "did not show any observable toxicity"}, {"measurement": "liver and kidney histology (H&E)", "setting": "[4]; after treatment with AGB", "result": "did not show any obvious change"}, {"measurement": "necrotic area in the tumor tissue vs vehicle group (H&E)", "setting": "[4]; mice treated with AGB", "result": "much larger"}]}
